Earlier results as cited in article PMC7496964 (Chemistry (Weinheim an Der Bergstrasse, Germany), 2020).

Target: human langerin ECD (Homo sapiens, UniProt Q9UJ71)
Sequence (Q9UJ71 65-328 limits assumed): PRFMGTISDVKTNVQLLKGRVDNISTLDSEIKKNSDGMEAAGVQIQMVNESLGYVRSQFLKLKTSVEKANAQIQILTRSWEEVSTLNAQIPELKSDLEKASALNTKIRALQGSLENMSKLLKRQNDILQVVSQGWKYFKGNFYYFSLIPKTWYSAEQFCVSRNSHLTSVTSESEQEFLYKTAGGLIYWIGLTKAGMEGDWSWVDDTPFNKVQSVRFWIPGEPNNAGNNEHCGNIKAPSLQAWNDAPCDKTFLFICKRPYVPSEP

## 1-α-azido B-trisaccharide [compound 10]
  Langerin affinity (in words), literature: weak affinity
